Reference: ChEMBL document CHEMBL1130625, “Synthesis and antibacterial activity of novel 7-(3-substituted-3 or 4-trifluoromethyl-1-pyrrolidinyl)-8-methoxyfluoroquinolones” (1998)
≈ marks a conversion by molar mass, not a printed value.

What was measured:
Escherichia coli [1] = test: Compound was tested for antibacterial activity against gram negative Escherichia coli NIHJ JC-2; type: functional
Enterococcus faecalis = test: Compound was tested for antibacterial activity against gram positive Enterococcus faecalis 1373; type: functional; settings: Enterococcus faecalis; read-out: MIC
Escherichia coli [2] = test: Compound was tested for antibacterial activity against gram negative Escherichia coli CSH2/RK1; type: functional; settings: Escherichia coli; read-out: MIC
Serratia marcescens = test: Compound was tested for antibacterial activity against gram negative Serratia marcescens No.16-2; type: functional; settings: Serratia marcescens; read-out: MIC
Staphylococcus aureus [3] = test: Compound was tested for antibacterial activity against gram positive Staphylococcus aureus KP-90-3; type: functional; settings: Staphylococcus aureus; read-out: MIC
Klebsiella pneumoniae [4] = test: Compound was tested for antibacterial activity against gram negative Klebsiella pneumoniae No.42; type: functional; settings: Klebsiella pneumoniae; read-out: MIC
Citrobacter freundii [5] = test: Compound was tested for antibacterial activity against gram negative Citrobacter freundii No.7; type: functional; settings: Citrobacter freundii; read-out: MIC
Staphylococcus aureus [6] = test: Compound was tested for antibacterial activity against gram positive Staphylococcus aureus JS-1; type: functional
Klebsiella oxytoca = test: Compound was tested for antibacterial activity against gram negative Klebsiella oxytoca GN 10650; type: functional; settings: Klebsiella oxytoca; read-out: MIC
Enterobacter cloacae = test: Compound was tested for antibacterial activity against gram negative Enterobacter cloacae Nek39; type: functional; settings: Enterobacter cloacae; read-out: MIC
Pseudomonas aeruginosa [7] = test: Compound was tested for antibacterial activity against gram negative Pseudomonas aeruginosa KP-254; type: functional; settings: Pseudomonas aeruginosa; read-out: MIC
Proteus mirabilis = test: Compound was tested for antibacterial activity against gram negative Proteus mirabilis JY-10; type: functional; settings: Proteus mirabilis; read-out: MIC
Proteus vulgaris [8] = test: Compound was tested for antibacterial activity against gram negative Proteus vulgaris KS-134; type: functional; settings: Proteus vulgaris; read-out: MIC
Pseudomonas aeruginosa [9] = test: Compound was tested for antibacterial activity against gram negative Pseudomonas aeruginosa PAO1; type: functional; settings: Pseudomonas aeruginosa; read-out: MIC
Escherichia coli [10] = test: Compound was tested for antibacterial activity against gram negative Escherichia coli CSH2/RE45; type: functional; settings: Escherichia coli; read-out: MIC
Streptococcus pyogenes = test: Compound was tested for antibacterial activity against gram positive Streptococcus pyogenes cook; settings: Streptococcus pyogenes; read-out: MIC
[11] = tested on: Acinetobacter calcoaceticus; test: Compound was tested for antibacterial activity against gram negative Acinetobacter calcoaceticus No.4; type: functional; settings: Acinetobacter calcoaceticus; read-out: MIC
Burkholderia cepacia = test: Compound was tested for antibacterial activity against gram negative Burkholderia cepacia 23; type: functional; settings: Burkholderia cepacia; read-out: MIC
Pseudomonas aeruginosa [12] = test: Compound was tested for antibacterial activity against gram negative Pseudomonas aeruginosa K-13; type: functional; settings: Pseudomonas aeruginosa; read-out: MIC
Escherichia coli [13] = test: Compound was tested for antibacterial activity against gram negative Escherichia coli ML4707; type: functional; settings: Escherichia coli; read-out: MIC
Staphylococcus aureus [14] = test: Compound was tested for antibacterial activity against gram positive Staphylococcus aureus FDA 209P JC-1; type: functional; settings: Staphylococcus aureus; read-out: MIC
Proteus vulgaris [15] = test: Compound was tested for antibacterial activity against gram negative Proteus vulgaris No.33; type: functional; settings: Proteus vulgaris; read-out: MIC
Klebsiella pneumoniae [16] = test: Compound was tested for antibacterial activity against gram negative Klebsiella pneumoniae KC-1; type: functional; settings: Klebsiella pneumoniae; read-out: MIC
Citrobacter freundii [17] = test: Compound was tested for antibacterial activity against gram negative Citrobacter freundii KP-29; type: functional; settings: Citrobacter freundii; read-out: MIC
Pseudomonas aeruginosa [18] = test: Compound was tested for antibacterial activity against gram negative Pseudomonas aeruginosa AK109; type: functional; settings: Pseudomonas aeruginosa; read-out: MIC
Staphylococcus aureus [19] = test: Compound was tested for antibacterial activity against gram positive Staphylococcus aureus smith; type: functional
[20] = Escherichia coli, read-out: MIC
[21] = Staphylococcus aureus, read-out: MIC

Structure (SMILES)	MIC (Enterococcus faecalis) [µg/mL]	MIC (Escherichia coli [2]) [µg/mL]	MIC (Serratia marcescens) [µg/mL]	MIC (Staphylococcus aureus [3]) [µg/mL]	MIC (Klebsiella pneumoniae [4]) [µg/mL]	MIC (Citrobacter freundii [5]) [µg/mL]	MIC (Klebsiella oxytoca) [µg/mL]	MIC (Enterobacter cloacae) [µg/mL]	MIC (Pseudomonas aeruginosa [7]) [µg/mL]	MIC (Proteus mirabilis) [µg/mL]	MIC (Proteus vulgaris [8]) [µg/mL]	MIC (Pseudomonas aeruginosa [9]) [µg/mL]	MIC (Escherichia coli [10]) [µg/mL]	MIC (Streptococcus pyogenes) [µg/mL]	MIC [11] [µg/mL]	MIC (Burkholderia cepacia) [µg/mL]	MIC (Pseudomonas aeruginosa [12]) [µg/mL]	MIC (Escherichia coli [13]) [µg/mL]	MIC (Staphylococcus aureus [14]) [µg/mL]	MIC (Proteus vulgaris [15]) [µg/mL]	also measured
COc1c(N2C[C@@H](CO)[C@H](C(F)(F)F)C2)c(F)cc2c(=O)c(C(=O)O)cn(C3CC3)c12	0.2 (≈ 0.45 µM)	6.25 (≈ 14.1 µM)	6.25 (≈ 14.1 µM)	0.78 (≈ 1.76 µM)	3.13 (≈ 7.04 µM)	12.5 (≈ 28.1 µM)	1.56 (≈ 3.51 µM)	3.13 (≈ 7.04 µM)	> 100	0.2 (≈ 0.45 µM)	100 (≈ 225 µM)	3.13 (≈ 7.04 µM)	6.25 (≈ 14.1 µM)	0.2 (≈ 0.45 µM)	0.78 (≈ 1.76 µM)	3.13 (≈ 7.04 µM)	25 (≈ 56.3 µM)	0.2 (≈ 0.45 µM)	0.025 (≈ 0.0563 µM)	0.78 (≈ 1.76 µM)	MIC (Escherichia coli [1]; [20]): 0.39 µg/mL (≈ 0.878 µM); MIC (Staphylococcus aureus [6]; [21]): 0.013 µg/mL (≈ 0.0293 µM); MIC (Klebsiella pneumoniae [16]): 1.56 µg/mL (≈ 3.51 µM); MIC (Citrobacter freundii [17]): > 100 µg/mL; MIC (Pseudomonas aeruginosa [18]): 6.25 µg/mL (≈ 14.1 µM); MIC (Staphylococcus aureus [19]): ≤ 0.006 µg/mL
COc1c(N2C[C@H](CN)[C@@H](C(F)(F)F)C2)c(F)cc2c(=O)c(C(=O)O)cn(C3CC3)c12.Cl	0.05	3.13	0.78	0.78	0.39	1.56	0.2	1.56	> 100	0.2	50	6.25	1.56	0.025	0.2	1.56	50	0.05	0.05	0.39	MIC (Escherichia coli [1]; [20]): 0.2 µg/mL; MIC (Staphylococcus aureus [6]; [21]): 0.013 µg/mL; MIC (Klebsiella pneumoniae [16]): 0.1 µg/mL; MIC (Citrobacter freundii [17]): 50 µg/mL; MIC (Pseudomonas aeruginosa [18]): 6.25 µg/mL; MIC (Staphylococcus aureus [19]): ≤ 0.006 µg/mL
COc1c(N2C[C@@H](C(F)(F)F)[C@@H](N)C2)c(F)cc2c(=O)c(C(=O)O)cn(C3CC3)c12.Cl	0.39	3.13	3.13	1.56	0.39	3.13	0.39	3.13	> 100	0.2	100	3.13	3.13	0.39	0.2	1.56	50	0.1	0.05	0.39	MIC (Escherichia coli [1]; [20]): 0.2 µg/mL; MIC (Staphylococcus aureus [6]; [21]): 0.05 µg/mL; MIC (Klebsiella pneumoniae [16]): 0.2 µg/mL; MIC (Citrobacter freundii [17]): 100 µg/mL; MIC (Pseudomonas aeruginosa [18]): 6.25 µg/mL; MIC (Staphylococcus aureus [19]): 0.025 µg/mL
COc1c(N2CC[C@@](N)(C(F)(F)F)C2)c(F)cc2c(=O)c(C(=O)O)cn(C3CC3)c12.Cl	0.2	3.13	3.13	1.56	0.39	3.13	0.39	1.56	> 100	0.2	100	6.25	3.13	0.1	0.2	1.56	25	≤ 0.006	0.05	0.39	MIC (Escherichia coli [1]; [20]): 0.39 µg/mL; MIC (Staphylococcus aureus [6]; [21]): 0.025 µg/mL; MIC (Klebsiella pneumoniae [16]): 0.2 µg/mL; MIC (Citrobacter freundii [17]): 100 µg/mL; MIC (Pseudomonas aeruginosa [18]): 6.25 µg/mL; MIC (Staphylococcus aureus [19]): ≤ 0.006 µg/mL
COc1c(N2C[C@@H](CN)[C@H](C(F)(F)F)C2)c(F)cc2c(=O)c(C(=O)O)cn(C3CC3)c12.Cl (racemic)	0.05	0.78	0.39	0.39	0.2	0.78	0.1	0.39	100	0.1	50	1.56	0.78	0.025	0.1	1.56	12.5	0.05	0.025	0.1	MIC (Escherichia coli [1]): 0.1 µg/mL; MIC (Staphylococcus aureus [6]): 0.013 µg/mL; MIC (Klebsiella pneumoniae [16]): 0.05 µg/mL; MIC (Citrobacter freundii [17]): 25 µg/mL; MIC (Pseudomonas aeruginosa [18]): 1.56 µg/mL; MIC (Staphylococcus aureus [19]): ≤ 0.006 µg/mL
CC1COc2c(N3CCN(C)CC3)c(F)cc3c(=O)c(C(=O)O)cn1c23 (configuration not stated) [OFLOXACIN]	1.56 (≈ 4.32 µM)	0.78 (≈ 2.16 µM)	0.78 (≈ 2.16 µM)	25 (≈ 69.2 µM)	0.2 (≈ 0.553 µM)	0.39 (≈ 1.08 µM)	0.1 (≈ 0.277 µM)	0.39 (≈ 1.08 µM)	> 100	0.05 (≈ 0.138 µM)	50 (≈ 138 µM)	1.56 (≈ 4.32 µM)	0.78 (≈ 2.16 µM)	0.78 (≈ 2.16 µM)	0.78 (≈ 2.16 µM)	3.13 (≈ 8.66 µM)	12.5 (≈ 34.6 µM)	0.025 (≈ 0.0692 µM)	0.39 (≈ 1.08 µM)	0.05 (≈ 0.138 µM)	MIC (Escherichia coli [1]; [20]): 0.1 µg/mL (≈ 0.277 µM); MIC (Staphylococcus aureus [6]; [21]): 0.39 µg/mL (≈ 1.08 µM); MIC (Klebsiella pneumoniae [16]): 0.05 µg/mL (≈ 0.138 µM); MIC (Citrobacter freundii [17]): 50 µg/mL (≈ 138 µM); MIC (Pseudomonas aeruginosa [18]): 1.56 µg/mL (≈ 4.32 µM); MIC (Staphylococcus aureus [19]): 0.2 µg/mL (≈ 0.553 µM)
NC1CCN(c2nc3c(cc2F)c(=O)c(C(=O)O)cn3-c2ccc(F)cc2F)C1 (configuration not stated) [TOSUFLOXACIN]	0.2 (≈ 0.495 µM)	0.39 (≈ 0.965 µM)	0.39 (≈ 0.965 µM)	12.5 (≈ 30.9 µM)	0.025 (≈ 0.0618 µM)	0.39 (≈ 0.965 µM)	0.05 (≈ 0.124 µM)	0.2 (≈ 0.495 µM)	> 12.5	0.05 (≈ 0.124 µM)	> 12.5	0.39 (≈ 0.965 µM)	0.39 (≈ 0.965 µM)	0.1 (≈ 0.247 µM)	0.025 (≈ 0.0618 µM)	0.78 (≈ 1.93 µM)	6.25 (≈ 15.5 µM)	0.013 (≈ 0.0322 µM)	0.05 (≈ 0.124 µM)	0.05 (≈ 0.124 µM)	MIC (Escherichia coli [1]; [20]): 0.05 µg/mL (≈ 0.124 µM); MIC (Staphylococcus aureus [6]; [21]): 0.05 µg/mL (≈ 0.124 µM); MIC (Klebsiella pneumoniae [16]): 0.025 µg/mL (≈ 0.0618 µM); MIC (Citrobacter freundii [17]): > 12.5 µg/mL; MIC (Pseudomonas aeruginosa [18]): 0.39 µg/mL (≈ 0.965 µM); MIC (Staphylococcus aureus [19]): 0.025 µg/mL (≈ 0.0618 µM)
